Test results: patent US20040121474A1, “Detection and evaluation of chemically-mediated and ligand-mediated t-cell activation using optophoretic analysis” (Genoptix, Inc, priority 2002, published 2004)

How the values were obtained:
[1] = system: U937 cells; test: Escape velocity of PMA-treated U937 cells, time course; assay type: cell-based
Protocol: PMA was dissolved in ethanol at a concentration of 5 mg/mL. 3 mls of U937 cells grown in RPMI 1640 media with supplements were removed from the culture flask and 1 ml was placed into each of three eppendorf tubes. Cells from the first tube were pelleted for 4 minutes at 10,000 rpm and resuspended in 250 uL PBS/1% BSA buffer for escape velocity measurements. […] These tubes were vortexed and placed in a 37° C. water bath for either one hour or six hours. At the end of the time point, the tube was removed, cells were pelleted and then resuspended as described above and escape velocity measurements taken.
The preferred method of performing cellular interrogation is through optical interrogation which includes determining the optophoretic properties of the cell(s). The optophoretic properties of the cell(s) can be determined in any number of ways. In one preferred embodiment, the escape velocity of cell(s) is used to determine the optophoretic properties. The escape velocity (measured typically in μm/sec) is defined as the minimum speed at which an interrogated cell no longer tracks the moving optical gradient.
The objective of this experiment is to compare the escape velocities of U937 cells that have been treated with the phorbol ester, phorbol 12 myristate 13-acetate (PMA), to the escape velocity of untreated U937 cells. PMA activates the Protein Kinase C pathway and may cause the cells to go into rapid cell differentiation, which may be indicated by a shift in escape velocity. The effect of PMA activation was tested at three timepoints: no activation, 1 hour of activation, and 6 hours of activation. At the end of the activation period, the cells were centrifuged for 4 minutes at 10,000 rpm. […] The cells were then centrifuged again and resuspended in buffer. The escape velocity and the cell size of cells from each tube were then calculated.

[2] = system: CD11b expression in HL-60 cells; test: FACS CD11b expression profile; assay type: cell-based; settings: 400 ng/ml PMA
Protocol: Fast scan analysis was also performed on HL-60 cells that were treated with PMA and DMSO. A time course evaluation of PMA treated HL-60 cells was performed with fast scan data taken at 16 hours, 24 hours, 40 hours, and 72 hours post-treatment with 400 ng/ml PMA. A control sample of HL-60 cells was also tested using EtOH as the vehicle for purposes of comparing the differentiated cells with the undifferentiated HL-60 cells. The PMA-treated and control cells were harvested and trypsinized. The samples were then resuspended in PBS/1% BSA. A set of samples was also obtained and left as pellets at 4° C. for subsequent FACS analysis.
FIG. 145 illustrates a histogram of the travel distance of the control cells as well as the PMA-treated cells at 16 hours, 24 hours, 40 hours, and 72 hours post-treatment. FIG. 146 illustrates the mean travel distances of the control cells as well as the PMA-treated cells at 16 hours, 24 hours, 40 hours, and 72 hours post-treatment. FIG. 147 illustrates the FACS CD11b expression profile in PMA-treated HL-60 cells as well as the control. CD11b is a known marker of cellular differentiation and is expressed on the surface of differentiating cells. […] The data illustrate that Optophoretic analysis can be used as an assay for the detection and quantification of cellular differentiation. […]

Question: Which results are given for CCCCCCCCCCCCCC(=O)O[C@@H]1[C@@H](C)[C@@]2(O)[C@@H](C=C(CO)C[C@]3(O)C(=O)C(C)=C[C@@H]23)[C@@H]2C(C)(C)[C@]12OC(C)=O [PMA, phorbol 12 myristate 13-acetate]?
Answer: distribution of escape velocities (FIG. 31) ([1]; 0.01 μg/ml PMA, 6 and 9 hours post treatment): clear trend toward higher escape velocities over time; escape velocity as compared to the untreated cells ([1]; 5 ug/mL PMA, 6 hours): significantly higher escape velocity; Escape velocity Average ([1]; 1 hour of PMA activation): 15.3 μm/sec; Escape velocity Average ([1]; 6 hours of PMA activation): 28.0 μm/sec; time after treatment at which a noticeable change in CD11b expression levels was observed [2]: about 40 hours
